# Measurements taken from patent US20220193067A1, “QUINOLINE COMPOUND OR PHARMACEUTICALLY ACCEPTABLE SALT THEREOF FOR TREATING EWING'S SARCOMA” (CHIA TAI TIANQING PHARMACEUTICAL GROUP CO., LTD., priority 2019, published 2022).
# Structures can show the parent of a compound that is named as a salt.
# Legend:
# [1] = test system: human Ewing's sarcoma cells A673; test: Effect on growth of Ewing's sarcoma, A673 subcutaneous xenograft in nude mice; type: in vivo, BALB/cA-nude mice; conditions: 6.25 mg/kg orally daily for 14 consecutive days; A673 subcutaneous tumors in nude mice
# Procedure: The dihydrochloride salt of the compound of formula I was dissolved in water to a concentration of 25 mg/mL and then further diluted with distilled water to a concentration of […].
# BALB/cA-nude mice, feeding environment: SPF grade. Nude mice were inoculated subcutaneously with human Ewing's sarcoma cells A673, and randomly grouped (d0) after tumors grew to 100-250 mm^3.
# The dihydrochloride of the compound of formula I (a dosage of 6.25 mg/kg) was orally administered daily to the animals in a volume of 10 mL/kg for 14 consecutive days. The tumor volume was measured 2-3 times per week, the mice were weighed, and the data was recorded.
# The equation for calculating tumor volume (V) is as follows: V=½×a×b^2, where a and b represent length and width, respectively.
# T/C (%)=(T-T0)/(C-C0)×100%, where T and C represent the tumor volumes of the administration group mice and the control group (i.e., solvent group) mice, respectively, at the end of the experiment; T0 and C0 represent the tumor volumes of administration group mice and the control group (i.e., solvent group) mice, respectively, at the time of grouping and administration (d0).
# The equation for calculating relative tumor volume (RTV) after administration is as follows: RTV=TV/TV0 (TV represents tumor volume at each measurement after administration, and TV0 represents tumor volume at the time of grouping and administration (d0)).
# [2] = test system: Human Ewing's sarcoma A673 cells; test: Apoptosis of Ewing's sarcoma cells, Annexin-V-FITC/PI flow cytometry; type: cell-based; conditions: different concentrations (0-30 μg/mL) added to vincristine+doxorubicin+cyclophosphamide; 24 h
# Procedure: Human Ewing's sarcoma A673 cells in logarithmic growth phase were added at 10^5 cells/well to a DMEM complete culture medium containing 2 μg/mL vincristine, 75 μg/mL doxorubicin and 500 μg/mL cyclophosphamide, and to a DMEM complete culture medium containing the dihydrochloride of the compound of formula I (at concentrations of 0, 0.005, 0.1, 0.05, 0.1, 0.5, 1.5, 4, 12 and 30 μg/mL), 2 μg/mL vincristine, 75 μg/mL doxorubicin and 500 μg/mL cyclophosphamide. The resulting mixtures were incubated for 24 h, and then the cells were collected, centrifuged at 1000 r/min for 3-5 min, and washed with PBS. Then the apoptosis of the cells was detected using an Annexin-V-FITC/PI apoptosis detection kit. The cells were resuspended in 100 μL of 1×Binding buffer solution, and 5 μL of Annexin-V-FITC and 2.5 μL of PI dye were added. The mixture was shaken and mixed well in the absence of light, reacted for 15 min at room temperature, added with 300 μL of 1×Binding buffer solution, mixed well, and then subjected to detection by a flow cytometer. The test was repeated 3 times.
# [3] = test system: Human Ewing's sarcoma cell line A673; test: Proliferation of Ewing's sarcoma cells (MTT method), combination with VAC-2 regimen; type: cell-based; conditions: combined with 2 μg/mL vincristine, 75 μg/mL doxorubicin and 500 μg/mL cyclophosphamide
# Procedure: The test drugs were dissolved in dimethyl sulfoxide to prepare a 100 mmol/L mother solution, which was stored at −20° C. for later use. When in use, the mother solution was prepared with a DMEM serum culture medium to reach a required concentration; vincristine, doxorubicin and cyclophosphamide were mixed (VAC-2 regimen), and the dihydrochloride diluent of the compound of formula I was mixed with vincristine, doxorubicin and cyclophosphamide. […]
# The ICso value can be measured by a conventional method in the art (e.g., MTT method), or can be measured by the following method (MTT method):
# Cells in logarithmic growth phase were inoculated in a 96-well culture plate (180 μL/well, 10^5 cells/well); after 2 h of incubation at 37° C./5% CO2, the cells were added with the dihydrochloride of the compound of formula I (solutions at gradient concentrations of 0, 0.005, 0.1, 0.05, 0.1, 0.5, 1.5, 4, 12 and 30 μg/mL), 2 μg/mL vincristine, 75 μg/mL doxorubicin and 500 μg/mL cyclophosphamide, and the resulting mixtures were incubated. […] The next day, OD values were measured at 570 nm and 630 nm wavelengths using a microplate reader (SPECTRA max 190) (calculated by subtracting OD values measured at 630 nm (the control wavelength) from all OD values measured at 570 nm), and the cell growth inhibition rate was calculated according to the following equation: […]
# [4] = test system: Ewing's sarcoma patients; test: Clinical trial of capsule combined with VAC-2 regimen in Ewing's sarcoma patients; type: in vivo, human; conditions: 12 mg capsule orally once daily, 2 weeks on/1 week off
# Procedure: A clinical trial was carried out in Ewing's sarcoma patients with measurable lesions (according to RECIST 1.1) for the combination of the dihydrochloride capsule of the compound of formula I and a second therapeutic agent (VAC-2 regimen). Patients in the patient group comprised patients who had previously received chemotherapy and those who had not. The patients were orally administered with 12 mg of the dihydrochloride capsule of the compound of formula I once daily (2 weeks of treatment and 1 week of interruption constitute one treatment cycle), and meanwhile the patients were treated with the VAC-2 regimen: intravenous infusion of 2 mg of vincristine on day 1, intravenous infusion of 75 mg/m^2 of doxorubicin on day 1, and intravenous infusion of 1200 mg/m^2 of cyclophosphamide on day 1 (28 days constitute one cycle). The evaluation endpoints included: efficacy endpoints, e.g., progression-free survival (PFS), objective response rate (ORR), duration of response (DOR), stable disease (SD) rate, clinical benefit rate (CBR), overall survival (OS), etc.; safety endpoints, e.g., incidence and severity of adverse events; and quality of life.
compound,measurement,setting,value
COc1cc2c(Oc3ccc4[nH]c(C)cc4c3F)ccnc2cc1OCC1(N)CC1 [1-1-[[[4-(4-fluoro-2-methyl-1H-indol-5-yl)oxy-6-methoxyquinolin-7-yl]oxy]methyl]cyclopropylamine dihydrochloride],growth of Ewing's sarcoma,[1],significantly inhibit the growth of Ewing's sarcoma
same,apoptosis caused by the VAC-2 regimen,[2],remarkably enhance apoptosis
same,inhibition effect on proliferation of A673 cells,[3],definite inhibition effect
same,overall survival,[4],can prolong overall survival
same,treatment of Ewing's sarcoma (efficacy),[4],effective for treatment of Ewing's sarcoma
